Several values for one entry are separate records, joined by “and”; a condition that tells them apart may be missing. Identical values can stand only once.
Test system: 556581-035-R-J1-PDC complex spheroid viability
Experiment: Anticancer human tumor 556581-035-R-J1-PDC patient-derived ovarian carcinoma cell line growth inhibition
Settings: for viability, T/C: stronger effect = lower value
Outline: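 Multicellular complex spheroids of tumor cells with human endothelial cells (HUVEC) and mesenchymal stem cells; the LSD1 inhibitor iadademstat was combined with standard-of-care or investigational agents. Top concentration at or near clinical Cmax, half-log dilutions; final DMSO ≤0.25%.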

[1] = curve of first compound, second compound 0.1 µM
[2] = curve of first compound, second compound 0.316 µM
[3] = curve of first compound, second compound 1 µM
[4] = curve of first compound, second compound 3.16 µM
[5] = curve of first compound, second compound 10 µM
[6] = second compound 0.1 µM, first compound 0.00316 µM
[7] = second compound 0.1 µM, first compound 0.01 µM
[8] = second compound 0.1 µM, first compound 0.0316 µM
[9] = second compound 0.1 µM, first compound 0.1 µM
[10] = second compound 0.1 µM, first compound 0.316 µM
[11] = second compound 0.1 µM, first compound 1 µM
[12] = second compound 0.316 µM, first compound 0.00316 µM
[13] = second compound 0.316 µM, first compound 0.01 µM
[14] = second compound 0.316 µM, first compound 0.0316 µM
[15] = second compound 0.316 µM, first compound 0.1 µM
[16] = second compound 0.316 µM, first compound 0.316 µM
[17] = second compound 0.316 µM, first compound 1 µM
[18] = second compound 1 µM, first compound 0.00316 µM
[19] = second compound 1 µM, first compound 0.01 µM
[20] = second compound 1 µM, first compound 0.0316 µM
[21] = second compound 1 µM, first compound 0.1 µM
[22] = second compound 1 µM, first compound 0.316 µM
[23] = second compound 1 µM, first compound 1 µM
[24] = second compound 3.16 µM, first compound 0.00316 µM
[25] = second compound 3.16 µM, first compound 0.01 µM
[26] = second compound 3.16 µM, first compound 0.0316 µM
[27] = second compound 3.16 µM, first compound 0.1 µM
[28] = second compound 3.16 µM, first compound 0.316 µM
[29] = second compound 3.16 µM, first compound 1 µM
[30] = second compound 10 µM, first compound 0.00316 µM
[31] = second compound 10 µM, first compound 0.01 µM
[32] = second compound 10 µM, first compound 0.0316 µM
[33] = second compound 10 µM, first compound 0.1 µM
[34] = second compound 10 µM, first compound 0.316 µM
[35] = second compound 10 µM, first compound 1 µM
[36] = second compound 0.1 µM, first compound 3.16 µM
[37] = second compound 0.1 µM, first compound 10 µM
[38] = second compound 0.316 µM, first compound 3.16 µM
[39] = second compound 0.316 µM, first compound 10 µM
[40] = second compound 1 µM, first compound 3.16 µM
[41] = second compound 1 µM, first compound 10 µM
[42] = second compound 3.16 µM, first compound 3.16 µM
[43] = second compound 3.16 µM, first compound 10 µM
[44] = second compound 10 µM, first compound 3.16 µM
[45] = second compound 10 µM, first compound 10 µM
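Also: spheroids exposed to agents for seven days.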
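For viability, T/C in this document: 100% = DMSO vehicle control wells.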

SMILES	IC50 [1]	IC50 [2]	IC50 [3]	IC50 [4]	IC50 [5]	viability, T/C [8]	viability, T/C [9]	viability, T/C [10]	viability, T/C [11]	viability, T/C [14]	viability, T/C [15]	viability, T/C [16]	viability, T/C [17]	viability, T/C [20]	viability, T/C [21]	viability, T/C [22]	viability, T/C [23]	viability, T/C [26]	viability, T/C [27]	viability, T/C [28]	further results
COc1cc(Nc2ncc3c(n2)-c2ccc(Cl)cc2C(c2c(F)cccc2OC)=NC3)ccc1C(=O)O + NC1CC1c1ccc(-c2cccc(O)c2)cc1	42.2 nM	27.5 nM	50.5 nM	440 nM	> 1000 nM	53.3%	44.6%	45.7%	37.3%	51.2%	43.1%	37.4%	37.8%	59.7%	42.9%	46.4%	37.9%	60.4%	49.7%	56%	viability, T/C [6]: 57.3%; viability, T/C [7]: 51.5%; viability, T/C [12]: 57.6%; viability, T/C [13]: 56.5%; viability, T/C [18]: 50.5%; viability, T/C [19]: 49%; viability, T/C [24]: 58.3%; viability, T/C [25]: 57.4%; viability, T/C [29]: 42.5%; viability, T/C [30]: 73.8%; viability, T/C [31]: 60.5%; viability, T/C [32]: 59.7%; viability, T/C [33]: 55.5%; viability, T/C [34]: 52%; viability, T/C [35]: 50.2%
COc1cc(Nc2ncc3c(n2)-c2ccc(Cl)cc2C(c2c(F)cccc2OC)=NC3)ccc1C(=O)O + NC1CCC(NC2CC2c2ccccc2)CC1	360 nM	307 nM	253 nM	213 nM	143 nM	58.4%	56.1%	54.9%	38.6%	63.9%	55%	50.1%	39.3%	57%	57.2%	46.9%	41.4%	61.4%	49%	53%	viability, T/C [6]: 67.5%; viability, T/C [7]: 59.8%; viability, T/C [12]: 65.1%; viability, T/C [13]: 67.8%; viability, T/C [18]: 62.3%; viability, T/C [19]: 60.6%; viability, T/C [24]: 66.5%; viability, T/C [25]: 66.4%; viability, T/C [29]: 35.3%; viability, T/C [30]: 58.6%; viability, T/C [31]: 54.6%; viability, T/C [32]: 58.5%; viability, T/C [33]: 50.3%; viability, T/C [34]: 46%; viability, T/C [35]: 36.8%
CC1(C)CCC(CN2CCN(c3ccc(C(=O)NS(=O)(=O)c4ccc(NCC5CCOCC5)c([N+](=O)[O-])c4)c(Oc4cnc5[nH]ccc5c4)c3)CC2)=C(c2ccc(Cl)cc2)C1 + NC1CC1c1ccc(-c2cccc(O)c2)cc1	4100 nM	3940 nM	4040 nM	3820 nM	3230 nM	89.8%	85.4%	73.2%	76.5%	83.2%	82%	73.2%	75.4%	82.6%	87%	81.9%	65.3%	83.5%	90.3%	72.2%	viability, T/C [36]: 65.5%; viability, T/C [37]: 3.69%; viability, T/C [38]: 61.6%; viability, T/C [39]: 4.26%; viability, T/C [40]: 67.4%; viability, T/C [41]: 5.26%; viability, T/C [29]: 73.9%; viability, T/C [42]: 61.3%; viability, T/C [43]: 4.73%; viability, T/C [32]: 85.4%; viability, T/C [33]: 81.7%; viability, T/C [34]: 75.6%; viability, T/C [35]: 65.4%; viability, T/C [44]: 55.2%; viability, T/C [45]: 3.86%
NS(=O)(=O)OCC1CC(n2ccc3c(NC4CCc5ccccc54)ncnc32)CC1O (centres undefined)																					viability, T/C (compound 0.00949 µM): 121% and 104%; viability, T/C (compound 0.03 µM): 122% and 77%; viability, T/C (compound 0.0949 µM): 111% and 74%; viability, T/C (compound 0.3 µM): 106% and 51.3%; viability, T/C (compound 0.949 µM): 91.9% and 37.8%; viability, T/C (compound 3 µM): 56.7% and 38%; IC50 (curve of compound): > 3000 nM and 407 nM
CC(C)c1c(-c2ccccc2)nc2c(C#N)c[nH]n2c1=O + NC1CC1c1ccc(-c2cccc(O)c2)cc1	> 10000 nM	> 10000 nM	> 10000 nM	> 10000 nM	> 10000 nM	100%	103%	95.8%	89.3%	90.6%	82.5%	86.4%	85.2%	96.4%	101%	79.7%	76.5%	85.6%	82.5%	84.8%	viability, T/C [36]: 88.8%; viability, T/C [37]: 64%; viability, T/C [38]: 73.6%; viability, T/C [39]: 79.9%; viability, T/C [40]: 69.8%; viability, T/C [41]: 60.2%; viability, T/C [29]: 86.7%; viability, T/C [42]: 77.9%; viability, T/C [43]: 69.3%; viability, T/C [32]: 92.6%; viability, T/C [33]: 91.2%; viability, T/C [34]: 89.4%; viability, T/C [35]: 75.4%; viability, T/C [44]: 66.1%; viability, T/C [45]: 59.6%
NC1CCC(NC2CC2c2ccccc2)CC1 (centres undefined)																					viability, T/C (compound 0.316 µM): 85.1% and 84.9%; IC50 (compound alone, run of 02/15/2022): > 10000 nM

From PubChem BioAssay AID1918938 (Molecular Pharmacology Branch, DTP, NCI, 2023)
